Structures can show the parent of a compound that is named as a salt.
Columns and labels:
[1] = tested on: MYB mRNA; experiment: Gene panel canonical junction qPCR assay, MYB CJ mRNA decrease; type: cell-based, human; conditions: Homo sapiens, canonical junction qPCR, read-out: MYB IC50 (decrease in CJ mRNA levels)
Outline: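 A673 or K562 cells were treated with compound, and lysates underwent cDNA synthesis and qPCR with a CY5 5′-nuclease probe or primer spanning the canonical exon junction. ΔCt versus GAPDH, GUSB or PPIA was normalized to DMSO (2^(−ΔΔCt)), converted to percentage response and fitted four-parameter logistic for IC50.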

[2] = tested on: MYB mRNA; experiment: Splicing RT-qPCR assay, MYB canonical (CJ) and alternative (AJ) junction mRNA; type: cell-based; conditions: Homo sapiens, A673 or K562 cells, 24 hours; for IC50: decrease in canonical junction mRNA; for AC50: increase in alternative junction mRNA
Outline: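 Housekeeping-normalized RT-qPCR of canonical and alternative junctions in lysates of A673 or K562 cells exposed 24 h to compound (11 points, 3-fold steps, max 10 uM).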

SMILES | IC50 [1] | IC50 [2] | AC50 [2]
Cc1cn2cc(NC(=O)c3ccc(N4C[C@@H](C)N[C@@H](C)C4)c4ccnnc34)nc(C)c2n1 [Compound 172, N-{2,8-dimethylimidazo[1,2-a]pyrazin-6-yl}-5-[(3R,5S)-3,5-dimethylpiperazin-1-yl]cinnoline-8-carboxamide] | 100 to 1000 nM | 100 to 1000 nM | < 100 nM
COc1cnc2c(N3C[C@@H](C)N[C@@H](C)C3)ccc(C(=O)Nc3cc(F)c4nc(C)cn4c3)c2n1 [Compound 205, 8-[(3R,5S)-3,5-dimethylpiperazin-1-yl]-N-{8-fluoro-2-methylimidazo[1,2-a]pyridin-6-yl}-3-methoxyquinoxaline-5-carboxamide; trifluoroacetic acid] | < 100 nM | < 100 nM | < 100 nM
Cc1cn2cc(NC(=O)c3ccc(N4CCNC5(CCOC5)C4)c4nccnc34)cc(F)c2n1 (stereo not shown) [Compound 373] | 100 to 1000 nM | 100 to 1000 nM | 1000 to 10000 nM
Cc1cn2cc(NC(=O)c3ccc(N4C[C@@H](C)NC5(CC5)C4)c4nccnc34)cc(F)c2n1 [Compound 376] | 100 to 1000 nM | 100 to 1000 nM | 100 to 1000 nM
Cc1cnc2c(N3CCNCC3)ccc(C(=O)Nc3cc(F)c4nc(C)cn4c3)c2n1 [Compound 197, N-{8-fluoro-2-methylimidazo[1,2-a]pyridin-6-yl}-3-methyl-8-(piperazin-1-yl)quinoxaline-5-carboxamide; trifluoroacetic acid] | 100 to 1000 nM | 100 to 1000 nM | 100 to 1000 nM
COc1cc2c(N3CCNCC3)ccc(C(=O)Nc3cc(F)c4nc(C)cn4c3)c2nn1 [Compound 183, N-{8-fluoro-2-methylimidazo[1,2-a]pyridin-6-yl}-3-methoxy-5-(piperazin-1-yl)cinnoline-8-carboxamide] | < 100 nM | < 100 nM | < 100 nM
Cc1cn2cc(NC(=O)c3ccc(N4CCC5(CCN5)CC4)c4nccnc34)cc(F)c2n1 [Compound 189, 8-{1,7-diazaspiro[3.5]nonan-7-yl}-N-{8-fluoro-2-methylimidazo[1,2-a]pyridin-6-yl}quinoxaline-5-carboxamide] | < 100 nM | < 100 nM | 100 to 1000 nM
Cc1nc(NC(=O)c2ccc(N3CCNCC3)c3ccnnc23)cc2cn(C)nc12 [Compound 178, N-{2,7-dimethylpyrazolo[3,4-c]pyridin-5-yl}-5-(piperazin-1-yl)cinnoline-8-carboxamide] | 100 to 1000 nM | 100 to 1000 nM | 100 to 1000 nM
Cc1cn2nc(NC(=O)c3ccc(N4CCNCC4)c4ccnnc34)cc(C)c2n1 [Compound 100] | 100 to 1000 nM | 100 to 1000 nM | 100 to 1000 nM
Cc1cn2cc(NC(=O)c3ccc(N4CCNC(C)(C)C4)c4nccnc34)cc(F)c2n1 [Compound 220, 8-(3,3-dimethylpiperazin-1-yl)-N-{8-fluoro-2-methylimidazo[1,2-a]pyridin-6-yl}quinoxaline-5-carboxamide] | < 100 nM | < 100 nM | < 100 nM
Cc1cn2cc(NC(=O)c3ccc(N4C[C@H](C)NC5(CC5)C4)c4nccnc34)cc(F)c2n1 [Compound 377] | < 100 nM | < 100 nM | < 100 nM
CCNC1CCN(c2ccc(C(=O)Nc3cc(F)c4nc(C)sc4c3)c3nnccc23)CC1 [Compound 221, 5-[4-(ethylamino)piperidin-1-yl]-N-(4-fluoro-2-methyl-1,3-benzothiazol-6-yl)cinnoline-8-carboxamide] | 1000 to 10000 nM | 1000 to 10000 nM | 1000 to 10000 nM
COc1cnc2c(C(=O)Nc3cc(F)c4nc(C)cn4c3)ccc(N3C[C@@H](C)N[C@@H](C)C3)c2n1 [Compound 223] | < 100 nM | < 100 nM | < 100 nM
CCc1cc(NC(=O)c2ccc(N3CCNCC3)c3ccnnc23)nn2cc(C)nc12 [Compound 168, N-{8-ethyl-2-methylimidazo[1,2-b]pyridazin-6-yl}-5-(piperazin-1-yl)cinnoline-8-carboxamide trifluoroacetic acid salt] | 1000 to 10000 nM | 1000 to 10000 nM | 1000 to 10000 nM
COc1cnc2c(C(=O)Nc3cc(F)c4nc(C)cn4c3)ccc(N3CCNCC3)c2n1 [Compound 225, N-{8-fluoro-2-methylimidazo[1,2-a]pyridin-6-yl}-2-methoxy-8-(piperazin-1-yl)quinoxaline-5-carboxamide] | < 100 nM | < 100 nM | 100 to 1000 nM
Cc1cn2cc(NC(=O)c3ccc(N4CCNC5(COC5)C4)c4nccnc34)cc(F)c2n1 [Compound 372] | 1000 to 10000 nM | 1000 to 10000 nM | 1000 to 10000 nM
CNC1CCN(c2ccc(C(=O)Nc3cc(F)c4nc(C)cn4c3)c3nc(OC)cnc23)C1 (stereo not shown) [Compound 202, N-{8-fluoro-2-methylimidazo[1,2-a]pyridin-6-yl}-3-methoxy-8-[3-(methylamino)pyrrolidin-1-yl]quinoxaline-5-carboxamide; bis(trifluoroacetic acid)] |  |  | 100 to 1000 nM

Continued, in another order:

IC50 [1] | IC50 [2] | SMILES | AC50 [2]
100 to 1000 nM | 100 to 1000 nM | Cc1cn2cc(NC(=O)c3ccc(N4CCN(C)CC4)c4ccnnc34)cc(F)c2n1 [Compound 127] | 1000 to 10000 nM
100 to 1000 nM | 100 to 1000 nM | COc1cc(NC(=O)c2ccc(N3CCNCC3)c3ccnnc23)cn2cc(C)nc12 [Compound 176, N-{8-methoxy-2-methylimidazo[1,2-a]pyridin-6-yl}-5-(piperazin-1-yl)cinnoline-8-carboxamide trifluoroacetate] | 100 to 1000 nM
100 to 1000 nM | 100 to 1000 nM | Cc1cn2cc(NC(=O)c3ccc(N4CCN5CCC[C@H]5C4)c4ccnnc34)cc(F)c2n1 [Compound 154] | 100 to 1000 nM
100 to 1000 nM | 100 to 1000 nM | Cc1cn2cc(NC(=O)c3ccc(C4CCN(C)CC4)c4ccnnc34)cc(F)c2n1 [Compound 140] | 100 to 1000 nM
100 to 1000 nM | 100 to 1000 nM | Cc1cn2cc(NC(=O)c3ccc(N4CCC(N(C)C)C4)c4ccnnc34)cc(F)c2n1 (stereo not shown) [Compound 134] | 100 to 1000 nM
100 to 1000 nM | 100 to 1000 nM | CC[C@H]1CN(c2ccc(C(=O)Nc3cc(F)c4nc(C)cn4c3)c3nnccc23)CCN1 [Compound 152] | 100 to 1000 nM
< 100 nM | < 100 nM | CCC1CN(c2ccc(C(=O)Nc3cc(F)c4nc(C)cn4c3)c3nnccc23)CCN1 (stereo not shown) [Compound 130] | 100 to 1000 nM
< 100 nM | < 100 nM | Cc1cn2cc(NC(=O)c3ccc(N4CCN(C)[C@H](C)C4)c4ccnnc34)cc(F)c2n1 [Compound 149] | 100 to 1000 nM
100 to 1000 nM | 100 to 1000 nM | Cc1cn2cc(NC(=O)c3ccc(N4CCC(NC(C)(C)C)CC4)c4ccnnc34)cc(F)c2n1 [Compound 138] | 100 to 1000 nM
100 to 1000 nM | 100 to 1000 nM | Cc1cn2cc(NC(=O)c3ccc(N4CC5(CNC5)C4)c4ccnnc34)cc(F)c2n1 [Compound 131] | 100 to 1000 nM
100 to 1000 nM | 100 to 1000 nM | Cc1cn2cc(NC(=O)c3ccc(N4CCNC5(CC5)C4)c4ccnnc34)cc(F)c2n1 [Compound 105] | 100 to 1000 nM
< 100 nM | < 100 nM | Cc1cn2cc(NC(=O)c3ccc(N4C[C@@H](C)N[C@@H](C)C4)c4ccnnc34)cc(F)c2n1 [Compound 161, 5-(3,5-dimethylpiperazin-1-yl)-N-{8-fluoro-2-methylimidazo[1,2-a]pyridin-6-yl}cinnoline-8-carboxamide 2,2,2-trifluoroacetate] | < 100 nM
100 to 1000 nM | 100 to 1000 nM | Cc1cn2cc(NC(=O)c3ccc(N4CCN(C)[C@@H](C)C4)c4ccnnc34)cc(F)c2n1 [Compound 150] | 100 to 1000 nM
< 100 nM | < 100 nM | CN[C@H]1CCN(c2ccc(C(=O)Nc3cc(F)c4nc(C)cn4c3)c3nccnc23)C1 (single isomer, unassigned) [Compound 194, N-{8-fluoro-2-methylimidazo[1,2-a]pyridin-6-yl}-8-[3-(methylamino)pyrrolidin-1-yl]quinoxaline-5-carboxamide] | 100 to 1000 nM
1000 to 10000 nM | 1000 to 10000 nM | CNCC1CCN(c2ccc(C(=O)Nc3cc(F)c4nc(C)cn4c3)c3nccnc23)CC1 [Compound 192, N-{8-fluoro-2-methylimidazo[1,2-a]pyridin-6-yl}-8-{4-[(methylamino)methyl]piperidin-1-yl}quinoxaline-5-carboxamide trifluoroacetate] | 1000 to 10000 nM
< 100 nM | < 100 nM | Cc1cn2cc(NC(=O)c3ccc(N4CCNC(C)C4)c4ccnnc34)cc(F)c2n1 (stereo not shown) [Compound 128] | < 100 nM
< 100 nM | < 100 nM | COc1ccc2c(N3CCNCC3)ccc(C(=O)Nc3cc(F)c4nc(C)cn4c3)c2n1 [Compound 169, N-{8-fluoro-2-methylimidazo[1,2-a]pyridin-6-yl}-2-methoxy-5-(piperazin-1-yl)quinoline-8-carboxamide] | < 100 nM
100 to 1000 nM | 100 to 1000 nM | CN[C@@H]1CCN(c2ccc(C(=O)Nc3cc(F)c4nc(C)cn4c3)c3nccnc23)C1 (single isomer, unassigned) [Compound 193, N-{8-fluoro-2-methylimidazo[1,2-a]pyridin-6-yl}-8-[3-(methylamino)pyrrolidin-1-yl]quinoxaline-5-carboxamide] | 100 to 1000 nM
1000 to 10000 nM | 1000 to 10000 nM | Cc1cn2cc(NC(=O)c3ccc(N4CCC(N5CCCC5)C4)c4ccnnc34)cc(F)c2n1 (stereo not shown) [Compound 133] | 100 to 1000 nM

— patent publication US20240409536A1, “COMPOUNDS AND METHODS FOR MODULATING SPLICING” (REMIX THERAPEUTICS INC., priority 2021, published 2024)
